For the experiment, the system named is K. pneumoniae. In words: Antimicrobial activity (MIC) of polymers and antibiotics individually. The note with it: Klebsiella pneumoniae, agents individually. The class given is cell-based. From the text: As depicted in FIGS. 1-5, “m” can represent a number that is, for example, greater than or equal to 5 and less than or equal to 30, and/or “n” can represent a number that is, for example, greater than or equal to 0 and less than or equal to 25. Additionally, the “*” can represent: one or more repetitions of all and/or parts of the structures shown, one or more hydrogens, an alkyl group, an aryl group, a combination thereof, and/or the like. Unless otherwise stated, materials utilized to facilitate the experiments, tables, charts, diagrams, and/or the like described herein can be acquired from the following sources. The bacteria Staphylococcus aureus (“S. aureus”, ATCC 29737), Escherichia coli (“E. coli”, ATCC 25922), Pseudomonas aeruginosa (“P. aeruginosa”, ATCC 9027), Candida albicans (“C. albicans”, ATCC 10231), and/or Klebsiella pneumoniae (“K. pneumoniae”, ATCC700603) were acquired from American Type Culture Collection (“ATCC”).
Further, Table 1, presented below, can depict the antimicrobial activity of the guanidinium functionalized polylysine polymers and/or antibiotics individually with regards to K. pneumoniae.
As a reminder, the MIC is the smallest concentration in the dilution series that meets the test's criterion for growth inhibition. For the compound `CN(C)[C@@H]1C(O)=C(C(N)=O)C(=O)[C@@]2(O)C(O)=C3C(=O)c4c(O)ccc(Cl)c4[C@@](C)(O)[C@H]3C[C@@H]12` [Chlortetracycline], the MIC turned out to be 15.6 µg/mL. On to `CCN1CCN(c2cc3c(cc2F)c(=O)c(C(=O)O)cn3C2CC2)CC1` [Enrofloxacin], for which the MIC turned out to be 1 µg/mL.

For `CO[C@H]1/C=C/O[C@@]2(C)Oc3c(C)c(O)c4c(O)c(c(/C=N/N5CCN(C)CC5)c(O)c4c3C2=O)NC(=O)/C(C)=C\C=C\[C@H](C)[C@H](O)[C@@H](C)[C@@H](O)[C@@H](C)[C@H](OC(C)=O)[C@@H]1C` [Rifampicin], the MIC was 31.3 µg/mL. As for `CO/N=C(\C(=O)N[C@@H]1C(=O)N2C(C(=O)O)=C(CSC(=O)c3ccco3)CS[C@H]12)c1csc(N)n1` [Ceftiofur], the MIC fell in the range of 4 to 8 µg/mL.

For the origin of these results see patent US11725107B2, “Polylysine polymers with antimicrobial and/or anticancer activity” (International Business Machines Corporation, priority 2019, dated 2023).
